# PMC6478789, “A chemical toolbox for the study of bromodomains and epigenetic signaling” (Nature Communications, 2019)
# Tests used:
# MYST3 = MYST3 (Homo sapiens, UniProt Q92794); assay: Histone acetyltransferase (HAT) activity assay; format: biochemical; details: read-out: HATs Activity (%);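 note: selectivity screen of bromodomain probe compounds across a panel of histone acetyltransferases, read out as enzyme activity in %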
# three TNBC lines = assay: Combinatorial screen of BRD inhibitors with or without BAY-876 (confluency); format: cell-based, human; details: 3 μM probe + 3 μM BAY-876
# Method: Fig. 6 BRD inhibitors leverage metabolic adaptations induced by glucose transporter I (GLUT1) inhibition in TNBC. a BRD inhibitor screening across ten TNBC cell lines. Cells were treated with indicated BRD inhibitors at 3 μM for 7 days. Confluency was measured using an IncuCyte ZOOM live cell imaging device. Data shown are mean ± s.d. of n = 4 independent cell culture grown and treated cells. A two-sided Student’s t test was used to derive the p-values. b SLC2A1 gene expression in the The Cancer Genome Atlas (TCGA) breast datasets. The cohorts were divided into TNBCs (red) and non-TNBCs (blue) according to PAM50 classification. Gene expression is reported as median-centered expression log2 values. The number of patients (n) per group is indicated. P-values were determined using a Wilcoxon's rank-sum test. c Glucose uptake in MDA-MB-436 cells in response to BAY-876 treatment relative to vehicle. MDA-MB-436 cells were treated with dimethyl sulfoxide (DMSO) or 3 µM BAY-876 for 5 days. Graph indicates mean, error bars denote s.d. from three independent assays and p-value was computed using the Benjamini-Hochberg t test; ***p < 0.001. d Effects of BAY-876 treatment on the intracellular acetyl-CoA level. Graph indicates mean, error bars denote s.d. from three independent assays and p-value was computed using the Benjamini-Hochberg t test; ***p < 0.001. e Effects of BAY-876 treatment on intracellular NAD^+/NADH level. Graph indicates the mean, error bars denote s.d. from three independent assays and p-value computed using the Benjamini-Hochberg t test; **p < 0.01. f Immunoblot analysis of H3 and H4 acetylation in MDA-MB-436 cells before and after BAY-876 treatment. P-value computed using the Benjamini-Hochberg t test; ***p < 0.001. g Cell growth effects of BAY-876 treatment on three representative cell lines. n.s. not significant. h Combinatorial screening of BRD inhibitors with or without 3 μM BAY-876 across ten TNBC cell lines. Cell confluency was obtained from the endpoint Incucyte scanning. (Left) Heatmap of the combinatorial screening results; (Right) Cell confluency after treatment with three potential BRDi candidates at 3 μM in the presence or absence of 3 μM BAY-876 in three representative cell lines. Graph indicates mean, error bars denote s.d. from three independent assays and p-values were computed using the Benjamini-Hochberg t test; **p < 0.01; ***p < 0.001. Raw data images are available in Supplementary Fig. 4
# TNBC cell lines were seeded in sterile, transparent 384-well plates at 500 cells per well in 50 µl media. Chemical probes were delivered in dimethyl sulfoxide (DMSO). Cell confluency at 7 days was evaluated using an Incucyte ZOOM live cell imaging device (Essen Bioscence) and analyzed with the Incucyte ZOOM (2016A) software based on phase contrast image.
# [1] = system: BT-549 and MDA-MB436 cell lines; assay: JQ1 dose-response with or without BAY-876; format: cell-based, human; details: with or without 3 μM BAY-876, 7 days
# Method: and error bars denote standard deviation from three independent assays. p value computed using a one-way ANOVA test; ****** p<0.001. e) The colony formation of indicated cells with 3μM indicated chemical probes treatment for 14 days. f) MDA-MB436 cells were treated with 3μM indicated chemical probes for 5 days. Cell apoptotic activity was quantified by the fluorescent caspase 3/7 active objects. Graph indicate mean and error bars denote standard deviation from four independent assays. p value computed using one-way ANOVA t test; ****
# Graph indicate mean and error bars denote standard deviation from four independent assays. p value computed using a two- stage step-up Benjamini t test i) Dose dependent
# Graph indicate mean and error bars denote standard deviation from four independent assay s. p value computed using a two - stage step -up Benjamini t test j) Immunoblot based quantification of H3K14ac abundance using total H3 as a control in MDA-MB-436 cells following control or 3 μM of the indicated chemical probes during a 5-day treatment. Graph indicate mean and error bars denote standard deviation from three independent assays. p value computed using a two-stage step-up Benjamini t test; **p<0.01; *** p<0.001. k) Immunoblot based quantification of H3K14ac abundance using total […]
# EP300 = EP300 (Homo sapiens, UniProt Q09472); assay: Histone acetyltransferase (HAT) activity assay; format: biochemical; details: read-out: HATs Activity (%);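 note: selectivity screen of bromodomain probe compounds against histone acetyltransferases, with enzyme activity given in percent for compounds tested at 1 and 10 µM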
# HAT1 = target: T1, HAT1 (Homo sapiens, UniProt O14929); assay: Histone acetyltransferase (HAT) activity assay; format: biochemical; details: read-out: HATs Activity (%);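 note: HAT selectivity screen of BRD probe compounds, enzyme activity in % measured with compound at 1 µM and 10 µM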
# T1 sequence (O14929 1-419): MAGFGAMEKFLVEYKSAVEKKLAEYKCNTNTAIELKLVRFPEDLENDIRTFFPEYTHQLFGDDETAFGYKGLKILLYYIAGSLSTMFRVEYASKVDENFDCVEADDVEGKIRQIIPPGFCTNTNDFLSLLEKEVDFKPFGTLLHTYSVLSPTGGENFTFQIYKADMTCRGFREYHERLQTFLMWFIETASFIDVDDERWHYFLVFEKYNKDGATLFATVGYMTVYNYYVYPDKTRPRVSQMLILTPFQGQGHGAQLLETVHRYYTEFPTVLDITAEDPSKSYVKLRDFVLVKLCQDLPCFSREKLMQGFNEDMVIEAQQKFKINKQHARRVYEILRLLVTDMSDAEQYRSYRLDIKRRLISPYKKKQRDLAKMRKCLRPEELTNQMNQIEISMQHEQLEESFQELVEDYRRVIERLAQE
# GCN5L2 = GCN5L2 (Homo sapiens, UniProt Q92830); assay: Histone acetyltransferase (HAT) activity assay; format: biochemical; details: read-out: HATs Activity (%);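 note: selectivity screen of BRD probe compounds across a panel of histone acetyltransferases, HAT activity in % with compound at 1 or 10 µM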
# MYST1 = target: T2, MYST1 (Homo sapiens, UniProt Q9H7Z6); assay: Histone acetyltransferase (HAT) activity assay; format: biochemical; details: read-out: HATs Activity (%);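 note: selectivity screen across a panel of histone acetyltransferases, with compounds tested at 1 and 10 µM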
# T2 sequence (Q9H7Z6 1-458): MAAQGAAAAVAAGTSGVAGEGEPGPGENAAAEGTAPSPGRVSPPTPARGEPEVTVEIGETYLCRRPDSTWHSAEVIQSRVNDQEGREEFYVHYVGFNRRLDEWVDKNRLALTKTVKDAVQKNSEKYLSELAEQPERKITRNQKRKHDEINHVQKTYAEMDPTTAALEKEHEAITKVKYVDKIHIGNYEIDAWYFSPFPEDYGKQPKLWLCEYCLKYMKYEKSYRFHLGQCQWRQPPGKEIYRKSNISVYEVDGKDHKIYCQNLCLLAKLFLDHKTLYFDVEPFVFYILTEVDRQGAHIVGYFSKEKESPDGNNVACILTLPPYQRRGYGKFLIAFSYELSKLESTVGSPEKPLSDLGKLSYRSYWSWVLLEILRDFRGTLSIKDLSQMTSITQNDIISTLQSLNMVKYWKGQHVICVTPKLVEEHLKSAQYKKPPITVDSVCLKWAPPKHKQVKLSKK
# C2C12 myoblast cells = assay: Gene-expression analysis (microarray); format: cell-based, mouse; details: 12 h; 500 nM (JQ1, LP-99), 2 μM (GSK2801, BAZ2-ICR, BSP)
# Method: Total RNA was extracted using the PureLink^TM RNA mini kit (Thermo Fisher Scientific, 12183018A) as per the manufacturer’s protocol.
# RNA samples were processed for oligonucleotide microarray profiling utilizing the Affymetrix Clariom^TM S Assay HT mouse. Quality controls were carried out in R (v.3.5.1) and Bioconductor[71] (v.3.7) using the arrayQualityMetrics package (v.3.36.0) taking into account array intensity distributions, distance between arrays, and variance mean dependence. Principal component analysis was used to decide which arrays to process together. After quality control, arrays were corrected for background, normalized, and log2-transformed together using the rma function of the oligo package (v.1.44)[73] in R/Bioconductor. Probes with small variance across samples were filtered out using the genefilter (v.1.62) package, employing the nsFilter function and an interquartile range cut-off of 0.28 (or >log(1.2), determined by the midpoint of the shortest interval containing half of the data). This reduced the number of probes of the Clariom^TM S array from 29,129 to 14,538.
# Differential expression analysis was conducted using the limma package (v.3.36.2)[74], employing a linear model followed by empirical Bayesian analysis to determine differential expression between not-treated and treated samples.
# ten TNBC cell lines = assay: High-throughput screening of bromodomain inhibitors in TNBC panel (confluency); format: cell-based, human; details: 3 μM, 7 days
# Method: Fig. 6 BRD inhibitors leverage metabolic adaptations induced by glucose transporter I (GLUT1) inhibition in TNBC. a BRD inhibitor screening across ten TNBC cell lines. Cells were treated with indicated BRD inhibitors at 3 μM for 7 days. Confluency was measured using an IncuCyte ZOOM live cell imaging device. Data shown are mean ± s.d. of n = 4 independent cell culture grown and treated cells. A two-sided Student’s t test was used to derive the p-values. b SLC2A1 gene expression in the The Cancer Genome Atlas (TCGA) breast datasets. The cohorts were divided into TNBCs (red) and non-TNBCs (blue) according to PAM50 classification. Gene expression is reported as median-centered expression log2 values. The number of patients (n) per group is indicated. P-values were determined using a Wilcoxon's rank-sum test. c Glucose uptake in MDA-MB-436 cells in response to BAY-876 treatment relative to vehicle. MDA-MB-436 cells were treated with dimethyl sulfoxide (DMSO) or 3 µM BAY-876 for 5 days. […]
# TNBC cell lines were seeded in sterile, transparent 384-well plates at 500 cells per well in 50 µl media. […] Cell confluency at 7 days was evaluated using an Incucyte ZOOM live cell imaging device (Essen Bioscence) and analyzed with the Incucyte ZOOM (2016A) software based on phase contrast image.
# MYST3, sequence (Q92794 whole entry, species assumed): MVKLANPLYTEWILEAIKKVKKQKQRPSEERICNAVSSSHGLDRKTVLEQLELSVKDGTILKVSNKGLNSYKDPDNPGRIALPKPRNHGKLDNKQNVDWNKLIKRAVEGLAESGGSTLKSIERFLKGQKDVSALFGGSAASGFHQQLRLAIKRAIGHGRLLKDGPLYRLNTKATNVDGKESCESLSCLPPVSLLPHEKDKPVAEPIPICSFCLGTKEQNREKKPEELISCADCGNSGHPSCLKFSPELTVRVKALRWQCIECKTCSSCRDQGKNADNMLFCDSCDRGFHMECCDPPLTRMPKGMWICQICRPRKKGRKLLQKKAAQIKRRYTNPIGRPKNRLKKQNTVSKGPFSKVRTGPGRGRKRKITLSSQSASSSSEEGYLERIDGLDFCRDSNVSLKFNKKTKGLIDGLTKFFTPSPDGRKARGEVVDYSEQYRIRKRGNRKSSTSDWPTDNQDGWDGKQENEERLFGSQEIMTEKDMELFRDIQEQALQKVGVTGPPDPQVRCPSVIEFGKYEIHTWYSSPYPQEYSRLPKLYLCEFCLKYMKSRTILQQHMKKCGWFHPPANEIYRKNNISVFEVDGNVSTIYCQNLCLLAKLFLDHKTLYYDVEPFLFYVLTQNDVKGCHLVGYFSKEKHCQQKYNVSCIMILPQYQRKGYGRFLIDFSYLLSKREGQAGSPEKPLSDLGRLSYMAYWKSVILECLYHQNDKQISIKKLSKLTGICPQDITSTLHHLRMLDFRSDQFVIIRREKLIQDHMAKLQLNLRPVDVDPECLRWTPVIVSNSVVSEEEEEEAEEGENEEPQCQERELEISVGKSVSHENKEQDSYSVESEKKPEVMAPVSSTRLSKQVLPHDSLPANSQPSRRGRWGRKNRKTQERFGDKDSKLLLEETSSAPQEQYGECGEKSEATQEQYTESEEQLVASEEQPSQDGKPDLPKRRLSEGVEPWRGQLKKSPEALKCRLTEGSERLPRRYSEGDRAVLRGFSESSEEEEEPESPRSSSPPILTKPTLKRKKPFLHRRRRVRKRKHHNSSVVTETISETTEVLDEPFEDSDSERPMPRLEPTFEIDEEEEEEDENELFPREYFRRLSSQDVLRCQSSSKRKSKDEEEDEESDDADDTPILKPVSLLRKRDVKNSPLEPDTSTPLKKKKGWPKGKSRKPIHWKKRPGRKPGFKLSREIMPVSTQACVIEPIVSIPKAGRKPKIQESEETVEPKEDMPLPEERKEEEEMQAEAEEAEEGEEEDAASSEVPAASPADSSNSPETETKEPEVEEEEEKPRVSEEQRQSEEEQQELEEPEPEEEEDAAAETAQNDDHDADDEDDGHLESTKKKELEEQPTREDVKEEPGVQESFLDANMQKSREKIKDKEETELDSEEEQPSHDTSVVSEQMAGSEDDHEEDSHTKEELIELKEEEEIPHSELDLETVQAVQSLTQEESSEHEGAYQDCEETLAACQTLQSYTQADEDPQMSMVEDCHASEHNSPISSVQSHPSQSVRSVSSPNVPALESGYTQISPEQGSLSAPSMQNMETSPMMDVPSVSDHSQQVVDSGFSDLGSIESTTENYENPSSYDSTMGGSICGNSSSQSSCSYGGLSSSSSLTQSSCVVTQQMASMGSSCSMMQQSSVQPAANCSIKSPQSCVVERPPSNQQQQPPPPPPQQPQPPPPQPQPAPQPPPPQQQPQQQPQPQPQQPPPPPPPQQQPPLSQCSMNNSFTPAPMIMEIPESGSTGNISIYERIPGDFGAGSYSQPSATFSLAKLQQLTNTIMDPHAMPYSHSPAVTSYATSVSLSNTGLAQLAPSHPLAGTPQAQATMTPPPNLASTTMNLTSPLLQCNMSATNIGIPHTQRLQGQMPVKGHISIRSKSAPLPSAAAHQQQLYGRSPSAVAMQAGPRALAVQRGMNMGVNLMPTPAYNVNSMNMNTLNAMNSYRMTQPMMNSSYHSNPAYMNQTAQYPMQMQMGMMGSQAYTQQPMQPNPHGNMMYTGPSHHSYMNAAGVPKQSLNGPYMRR
# EP300, sequence (Q09472 whole entry, species assumed): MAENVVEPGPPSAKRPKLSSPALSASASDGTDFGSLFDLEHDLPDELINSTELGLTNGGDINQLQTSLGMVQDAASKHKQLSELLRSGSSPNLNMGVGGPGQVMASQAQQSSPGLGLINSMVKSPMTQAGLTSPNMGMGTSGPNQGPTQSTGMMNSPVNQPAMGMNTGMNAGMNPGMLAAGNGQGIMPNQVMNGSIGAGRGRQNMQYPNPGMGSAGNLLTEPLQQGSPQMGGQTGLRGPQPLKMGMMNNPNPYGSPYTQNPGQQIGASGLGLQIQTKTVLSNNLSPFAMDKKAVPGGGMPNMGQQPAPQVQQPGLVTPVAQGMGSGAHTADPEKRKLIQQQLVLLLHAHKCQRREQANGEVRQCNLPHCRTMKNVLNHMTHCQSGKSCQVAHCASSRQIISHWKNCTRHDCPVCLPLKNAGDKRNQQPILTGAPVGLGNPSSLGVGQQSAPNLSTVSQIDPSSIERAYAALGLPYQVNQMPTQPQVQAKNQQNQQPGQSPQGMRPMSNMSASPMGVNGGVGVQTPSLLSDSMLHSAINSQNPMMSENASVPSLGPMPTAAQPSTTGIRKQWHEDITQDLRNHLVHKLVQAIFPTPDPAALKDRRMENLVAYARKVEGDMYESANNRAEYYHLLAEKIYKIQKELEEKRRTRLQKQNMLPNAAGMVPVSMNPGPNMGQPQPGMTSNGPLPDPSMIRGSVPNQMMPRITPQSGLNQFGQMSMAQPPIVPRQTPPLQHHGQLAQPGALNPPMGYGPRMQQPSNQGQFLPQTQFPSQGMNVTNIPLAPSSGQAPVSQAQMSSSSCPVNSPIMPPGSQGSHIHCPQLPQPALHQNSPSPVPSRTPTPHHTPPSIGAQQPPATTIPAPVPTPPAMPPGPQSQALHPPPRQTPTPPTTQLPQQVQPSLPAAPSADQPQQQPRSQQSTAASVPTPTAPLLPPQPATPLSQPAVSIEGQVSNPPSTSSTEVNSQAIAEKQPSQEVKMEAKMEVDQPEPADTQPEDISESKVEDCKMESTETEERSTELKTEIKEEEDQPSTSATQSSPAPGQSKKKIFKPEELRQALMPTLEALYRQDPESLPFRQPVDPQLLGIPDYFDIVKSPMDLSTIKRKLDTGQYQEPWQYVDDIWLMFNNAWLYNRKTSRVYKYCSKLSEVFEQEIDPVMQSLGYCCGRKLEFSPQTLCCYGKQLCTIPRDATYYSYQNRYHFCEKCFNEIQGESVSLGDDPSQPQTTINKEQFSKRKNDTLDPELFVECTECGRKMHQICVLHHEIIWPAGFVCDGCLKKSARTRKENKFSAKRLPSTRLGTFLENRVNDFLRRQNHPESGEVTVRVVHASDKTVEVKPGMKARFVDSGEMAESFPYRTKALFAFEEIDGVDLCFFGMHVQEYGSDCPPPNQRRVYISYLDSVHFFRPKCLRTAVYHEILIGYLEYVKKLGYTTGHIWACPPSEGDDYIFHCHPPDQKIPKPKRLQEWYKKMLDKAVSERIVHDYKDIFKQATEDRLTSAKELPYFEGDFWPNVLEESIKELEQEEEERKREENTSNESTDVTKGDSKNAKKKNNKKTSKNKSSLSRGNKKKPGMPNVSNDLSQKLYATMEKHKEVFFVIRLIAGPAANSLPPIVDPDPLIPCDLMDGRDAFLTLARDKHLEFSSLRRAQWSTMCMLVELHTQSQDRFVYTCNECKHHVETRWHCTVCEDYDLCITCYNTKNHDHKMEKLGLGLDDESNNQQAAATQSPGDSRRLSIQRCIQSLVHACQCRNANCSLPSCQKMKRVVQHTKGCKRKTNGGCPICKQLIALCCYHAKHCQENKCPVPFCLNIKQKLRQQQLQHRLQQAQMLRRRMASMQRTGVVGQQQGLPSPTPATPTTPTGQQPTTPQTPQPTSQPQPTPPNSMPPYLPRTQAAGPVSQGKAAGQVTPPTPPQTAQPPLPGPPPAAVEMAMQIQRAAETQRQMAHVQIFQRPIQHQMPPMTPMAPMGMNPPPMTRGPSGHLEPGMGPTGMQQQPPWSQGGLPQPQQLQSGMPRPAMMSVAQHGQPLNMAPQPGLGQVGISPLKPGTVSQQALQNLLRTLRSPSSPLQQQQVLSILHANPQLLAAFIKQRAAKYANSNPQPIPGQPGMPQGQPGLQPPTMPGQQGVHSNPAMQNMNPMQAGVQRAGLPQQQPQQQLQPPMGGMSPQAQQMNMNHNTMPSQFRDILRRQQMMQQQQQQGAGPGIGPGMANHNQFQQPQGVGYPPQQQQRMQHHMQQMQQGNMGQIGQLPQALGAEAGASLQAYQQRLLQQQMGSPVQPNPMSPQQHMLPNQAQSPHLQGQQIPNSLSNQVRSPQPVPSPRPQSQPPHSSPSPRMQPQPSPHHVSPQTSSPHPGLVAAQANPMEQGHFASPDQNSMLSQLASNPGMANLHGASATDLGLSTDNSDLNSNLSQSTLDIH
smiles,measurement,setting,value
Cc1sc2c(c1C)C(c1ccc(Cl)cc1)=NC(CC(=O)OC(C)(C)C)c1nnc(C)n1-2 (centres unmarked) [JQ1],activity at 1 µM,MYST3,108%
same,activity at 10 µM,MYST3,100%
same,combination effect with BAY-876 across the three cell lines,three TNBC lines,efficacy in only one of the three tested TNBC lines
same,synergy with BAY-876,[1],no significant synergistic effect
same,activity at 1 µM,EP300,99%
same,activity at 10 µM,EP300,102%
same,activity at 1 µM,HAT1,98%
same,activity at 10 µM,HAT1,103%
same,activity at 1 µM,GCN5L2,104%
same,activity at 10 µM,GCN5L2,98%
same,activity at 1 µM,MYST1,99%
same,activity at 10 µM,MYST1,95%
same,changes in gene-expression levels,C2C12 myoblast cells,significant changes in gene-expression levels
same,anti-proliferative effect (confluency),ten TNBC cell lines,strong anti-proliferative effects
